Data from patent US4528377A, “Substituted 3,4-diamino-1,2,5-thiadiazoles having histamine H2 -receptor antagonist activity” (Bristol-Myers Company, priority 1983, dated 1985).

Legend:
gastric acid secretion = assay: Gastric antisecretory activity in the gastric fistula rat; assay type: in vivo, Long Evans rats; conditions: sc, relative to cimetidine
histamine H2-receptors = target: T1, histamine H2-receptors (Cavia porcellus, UniProt P47747); assay: Histamine H2-receptor antagonism, isolated guinea pig right atria assay; assay type: cell-based, Hartley strain guinea pigs; conditions: for Kb: Schild plot, 30-minute incubation, 95% confidence limits in parentheses, read-out: KB (dissociation constant); for Potency Ratio (cimetidine = 1.0): relative to cimetidine
T1 construct: The spontaneously beating right atrium was dissected free from other tissues; from tissue; host or cells: isolated right atrium of male Hartley strain guinea pigs
T1 sequence (P47747 whole entry): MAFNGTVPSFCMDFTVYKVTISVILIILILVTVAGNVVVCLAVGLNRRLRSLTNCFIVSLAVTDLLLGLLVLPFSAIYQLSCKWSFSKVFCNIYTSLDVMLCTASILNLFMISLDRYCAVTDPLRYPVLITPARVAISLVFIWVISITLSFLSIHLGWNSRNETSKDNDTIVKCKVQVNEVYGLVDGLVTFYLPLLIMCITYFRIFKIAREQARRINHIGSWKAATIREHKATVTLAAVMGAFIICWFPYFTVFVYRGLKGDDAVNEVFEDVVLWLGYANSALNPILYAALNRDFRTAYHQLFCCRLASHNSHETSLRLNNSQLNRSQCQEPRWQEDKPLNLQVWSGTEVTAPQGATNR
Procedure: Subsequent investigations by Hughes and Coret, Proc. Soc. […] Black et al., Agents and Actions, 3, 133 (1973) and Brimblecombe et al., Fed. […] The present comparative studies were carried out using a modification of the procedure reported by Reinhardt et al., Agents and Actions, 4, 217 (1974).
The spontaneously beating right atrium was dissected free from other tissues and a silk thread (4-0) attached to each end. […] Atrial contractions were recorded isometrically by means of a Grass FT 0.03 force displacement transducer and recordings of contractile force and rate were made with a Beckman RP Dynograph.

peptic ulcer disease = conditions: clinical evaluation, Gray et al., Lancet, 1, 8001 (1977); cited from earlier work

Kb (histamine H2-receptors) | Potency Ratio (cimetidine = 1.0) (histamine H2-receptors) | SMILES | Potency Ratio (cimetidine = 1.0) (gastric acid secretion) | effect in treatment of peptic ulcer disease (peptic ulcer disease)
 |  | Cc1cc(CSCCNc2nsnc2N)sc1CN(C)C [Example 3, 3-Amino-4-{2-[(5-dimethylaminomethyl-4-methyl-2-thienyl)methylthio]ethylamino}-1,2,5-thiadiazole] | ~ 7 | 
4 nM | 102 | Nc1nsnc1NCCCOc1cccc(CN2CCCC2)c1 [Example 4, 3-Amino-4-[3-(3-pyrrolidinomethylphenoxy)propylamino]-1,2,5-thiadiazole] | 20 | 
 |  | CN/C(=N/CCSCc1nc[nH]c1C)NC#N [cimetidine] |  | effective therapeutic agent in the treatment of peptic ulcer disease
3 nM | 137 | Nc1nsnc1NCCCOc1cccc(CN2CCCCC2)c1 [Example 1, 3-Amino-4-[3-(3-piperidinomethylphenoxy)propylamino]-1,2,5-thiadiazole] | 37 | 
 |  | CN(C)Cc1ccc(CSCCNc2nsnc2N)o1 [Example 2, 3-Amino-4-{2-[(5-dimethylaminomethyl-2-furyl)methylthio]ethylamino}-1,2,5-thiadiazole] | 4.5 | 
